Source: US20110195910A1, “USE OF TOCOTRIENOL COMPOSITION FOR THE PREVENTION OF CANCER” (DAVOS LIFE SCIENCE PTE. LTD., priority 2008, published 2011)

Tests used:
[1] = test system: MDA-MB-231 cells; assay: Flow cytometry, western blotting and RT-PCR, MDA-MB-231 cells; assay type: cell-based, human
Procedure: 1.1.3 Flow cytometry—Cell cycle distribution was examined using flow cytometry. Briefly, cells were harvested by trypsinization, fixed in 70% ethanol at 4° C. overnight, and then resuspended in PBS. After incubation at 4° C. for overnight, 2×10^6 cells were incubated with in 20 μg/ml propidium iodide (PI) and 2 mg RNaseA for 15 minutes at 37° C. Cells were then examined by BD SLRII cytometer and the results were analyzed using ModFit software (Becton Dickinson, Mountain View, Calif.). Data were expressed as the percentage of cell cycle distribution in the entire population.
1.1.5 Western blotting—Detailed protocols have been described previously and are known in the art. Briefly, cell lysates were prepared by suspending cell pellets in lysis buffer [50 mmol/l Tris-HCl (pH 8.0), 150 mmol/l NaCl, 1% NP40, 0.5% deoxycholate, 0.1% SDS, 1 mg/ml aprotinin, 1 μg/ml leupeptin and 1 mmol/l phenylmethylsulfonyl fluoride]. For nuclear protein extraction, NucBuster™ protein extraction kit was used. Protein concentration was measured using the DC Protein Assay kit (Bio-Rad, Hercules, Calif.). Equal amount of protein (30 μg) was loaded onto a 10% SDS polyacrylamide gel for electrophoresis and then transferred onto a polyvinylidene difluoride membrane (Amersham, Piscataway, N.J.). The membrane was then incubated with primary antibodies for 1 hr at room temperature against E-cadherin (BD Biosciences, Bedford, Mass.), α-catenin, β-catenin, γ-catenin, Id-1, Id-3, EGFR, phosphor-c-jun, phosphor-ATF2, cleaved PARP, vimentin, α-smooth muscle actin, twist (Santa Cruz Biotechnology, Calif.), phosphor-IkB-alpha (Ser32/36), phosphor-IKK alpha (Seri 80)/IKK beta (Ser181), phosphor-SAPK/JNK (Thr183/Tyr185) G9, SAPK/JNK, NF-kB p65 (5A5) (Cell Signaling Technology Inc, Beverly, Mass.), Snail (Abcam). After incubation with appropriate secondary antibodies, signals were visualized by ECL western blotting system (Amersham, Piscataway, N.J.). Expression of β-actin and histone H1 were assessed as an internal loading control for total cell lysate and nuclear protein lysate respectively.
3.1.5 DNA fragmentation assay—After 24 hrs incubation with gamma-T3, 3×10^6 MDA-MB-231 cells were harvested and suspended in lysis buffer [5 mM Tris-HCl (pH 8.0), 20 mM EDTA, and 0.5% (v/v) Triton X-100] for 60 min on ice. Samples were centrifuged, the supernatants were removed and incubated with 5 μl RNase A (10 μg/ml) at 37° C. for 40 min, and 1 ml of anhydrous ethanol was added. Tubes were placed at […] for 20 min and then centrifuged to pellet the DNA. DNA samples were analyzed by electrophoresis at 80 V for 3 hrs on a 2% agarose gel containing ethidium bromide (0.2 μg/ml) and visualized under UV illumination.
3.1.6 Terminal deoxynucleotidyltransferase-mediated deoxyuridine triphosphate nick end-labelling (TUNEL) assay—DNA strand breaks during apoptosis was examined using in situ cell death detection reagent (Roche Applied Science). Briefly, 1×10^6 cells were pretreated with gamma-T3 for 24 hrs. Thereafter, cells were incubated with reaction mixture for 60 min at 37° C. Stained cells were analyzed and captured by fluorescence microscope on glass slide.
3.1.7 Flow cytometry was carried out as described above under item 1.1.3. Matrigel-invasion assay was carried out as described above under item 1.1.4. Western blotting was carried out as described above under item 1.1.5.
3.1.8 Id-1 RT-PCR—Total RNA was isolated using Trizol® reagent according to the manufacturer's protocol (Invitrogen). cDNA was synthesized using the SuperScript™ First Strand Synthesis System (Invitrogen) and was then amplified by PCR with Id-1 specific primers (forward primer, Id1-S, 5′-CTCCAGCACGTCATCGACTA-3′ and reverse primer, Id1-AS,5′-AAC GCA TGC CGC CTC-3′). PCR cycling protocol was as follows: 30 cycles of 10 min at 95° C., 30 s at 95° C., 30 s at 55° C., 1 min at 72° C. and 10 min at 72° C. Glyceraldehyde 3-phosphate dehydrogenase was amplified as an internal control. […]

[2] = test system: PC-3 cells; assay: Spheroid (prostasphere) formation assay, PC-3 cells; assay type: cell-based; conditions: 5 μg/ml, untreated average 21 per well
Procedure: 5.1.7 Spheroid formation assay—Spheroid formation assay was performed with a protocol modified from previous study (Folkins C, p3560). Briefly, cells were first trypsinized, washed with 1× PBS and resuspended in DMEM F12 medium. Two hundred cells were added into each well of a 24-well-plate pre-coated with polyHEMA (Sigma, St. Louis, Mo.). Cells will be grown in DMEM/F12 mem (Invitrogen, Carlsbad, Calif.) supplemented with 4 μg/mL insulin (Sigma, St. Louis, Mo.), B27 (Invitrogen, Carlsbad, Calif.), 20 ng/mL EGF (Sigma, St. Louis, Mo.), and 20 ng/mL basic FGF (Invitrogen, Carlsbad, Calif.). Fresh medium with the above supplements was added every day. γ-T3 was added at indicated time points and the number of spheroids was counted at day 14 of the assay or at the end of the treatment. Each experiment was repeated in triplicates and each data point represented the mean and standard derivation.

[3] = test system: PC-3-luc cells; assay: Orthotopic PC-3 xenograft model (tumorigenicity of pre-treated cells); assay type: in vivo, CB-17 SCID mice; conditions: cells pre-treated with 5 μg/ml for 24 hrs; two weeks after implantation
Procedure: 5.1.9 Orthotopic PC-3 xenograft model—The orthotopic model was established with procedures known in the art. Briefly, 8-week-old CB-17 SCID mice were anesthetized and placed under a dissecting microscope (Olympus, Tokyo, Japan). An incision at the midline of abdomen was made and the dorsal prostate was exposed at the base of the bladder. Equal amount of viable PC3-luc cells (2.6×10^4 cells resuspended in 5 μl of serum free RPMI) with or without prior γ-T3 treatment for 24 hrs were injected into the dorsal prostates of the mice. Organs were replaced and the abdomen was closed. To detect the bioluminescent signal of the cells, mice were anesthetized and then injected with 80 mg/kg of D-luciferin solution by i.p. (Xenogen Corporation, Cranbury, N.J.). Signal was captured by Xenogen IVIS 100 series imaging system. Tumors progression was monitored by measuring the bioluminescent signal (units of photons per second per unit area) every 2 weeks until 6-week post tumor implantation. Mice were sacrificed by cervical dislocation and tumors were collected and fixed in 10% formalin. All surgical and animal handling procedures were carried out according to the guidelines of the Committee on the Use of Live Animals in Teaching and Research (CULATR), The University of Hong Kong.

CC(C)=CCC/C(C)=C/CC/C(C)=C/CCC1(C)CCc2cc(O)c(C)c(C)c2O1 (stereo not shown) [γ-T3, 7,8-dimethyltocotrienol]
JNK phosphorylation ([1]; MDA-MB-231): dose-dependent increase in JNK phosphorylation activities
Src phosphorylation, protein level of Smad1/5/8, LOX and activated Fak ([1]; MDA-MB-231): repressed in a dose dependent manner
expression of Snail and Twist ([1]; MDA-MB-231): downregulated
nuclear level of NF-κB p65 ([1]; MDA-MB-231): suppressed nuclear level of NF-κB p65 in a dose-dependent manner
MAPK/ERK pathway (phosphorylation of Erk1/2, Mek1/2 and Elk1) ([1]; MDA-MB-231, 24 hours): activated
activation of pro-apoptotic proteins (cleaved products) ([1]; MDA-MB-231, 24 hrs): activation of procaspase 3, 7, 8, 9 as well as PARP
Id1 and Id3 expressions (EGF-R similar) ([1]; MDA-MB-231, increasing dosages): significantly suppressed to almost undetectable level
sub-G1 cell population (flow cytometry) ([1]; gamma-T3 IC50-90, 24 hrs): induction of sub-G1 cell population
prostasphere formation [2]: no prostasphere
mice that failed to develop visible tumor [3]: 5 out of 7
